Measured values taken from paper PMC8008885 (Journal of Enzyme Inhibition and Medicinal Chemistry, 2021).

Test system: H3K9me3 occupancy in promoter regions
Assay: H3K9me3-ChIP sequencing of striatal tissue of YAC128 mice
Type: in vivo, mouse
Details: for Fold(YACEi/YAC) H3K9me3 ChIP occupancy: APQ-treated YAC vs YAC mice striatum
Experimental: ChIP for H3K9me3 binding to DNA was performed using a CHIP assay kit (Santa Cruz, Dallas, TX) as described previously[21]^,[28]. Striatal tissues from WT, vehicle treated YAC128, and APQ-treated YAC128 mice were crossed-linked with 1% formaldehyde for 20 min at room temperature. Lysates were sonicated for 30 s six times using a Bioruptor (Diagenode Inc., Denville, NJ). After centrifugation, the supernatant was diluted in CHIP dilution buffer and incubated overnight at 4 °C with anti-H3K9me3 antibody. Immune complexes were recovered by the addition of 60 µl of salmon sperm DNA/protein A agarose-50% slurry and incubation at 4 °C for 2 h with rotation. Beads were pelleted and washed with low and high salt buffer followed by LiCl buffer (x3). Immune complexes were eluted by incubation with 500 µl of fresh elution buffer (1% SDS, 0.1 M NaHCO3) and 20 µl of 5 M NaCl. DNA was cleaned by the addition of 500 mM EDTA, 1 M Tris, and proteinase K at 66 °C for 4 h. The DNA solution was extracted with a phenol/chloroform/isoamyl alcohol mixture to remove protein contaminants, followed by precipitation with 100% ethanol. After precipitation, the pellet was washed with 70% ethanol and dissolved in 20 µl DW.
The Model-based Analysis of ChIP-Seq algorithm (MACS; v. 1.4.2) was used to identify regions of H3K9me3 enrichment with the default parameters. The peaks that pass a Poisson p values threshold of 0.1 were used for further analyses[28]^,[42]. In order to obtain reliable regions of enrichment, the regions detected in more than two samples were selected and aligned to define the consensus regions using DiffBind R package (v. 2.4.8)[43]. The reads in the consensus regions were counted and DESeq2 was applied to identify DMRs[44]. The DMRs were defined as p values of ≤.05 and only DMRs in promoter region (≤3 K from transcription start site) were selected.
Among the read peaks, a total of H3K9me3-enriched 71735 sites were commonly detected using MACS in WT, vehicle-treated YAC128, and APQ-treated YAC128 mice (using DiffBind R package). The reads were re-counted in the 71,735 sites (using DESeq2) and the H3K9me3-enriched sites in promoter region (≤3 K), with p values ≤.01 were selected. Then the H3K9me3-enriched sites with 1.5-fold higher in vehicle-treated YAC128 compared to WT and 1.5-fold lower in vehicle-treated YAC128 compared to APQ-treated YAC128 were finally selected.

C=CCOc1cccc2nc(N3CCCC3)ccc12 [APQ, 5-allyloxy-2-(pyrrolidin-1-yl)quinoline]
Fold(YACEi/YAC) (H3K9me3 ChIP peak chrX_13041660_13042117, 5730405O15Rik, Promoter (<=1kb)): -3.61 | Fold(YACEi/YAC) (H3K9me3 ChIP peak chrX_20364227_20364518, Rp2, Promoter (<=1kb)): -2.41 | Fold(YACEi/YAC) (H3K9me3 ChIP peak chrX_20656130_20656390, Uba1, Promoter (1-2kb)): -3.37 | Fold(YACEi/YAC) (H3K9me3 ChIP peak chrX_20953229_20953500, Elk1, Promoter (2-3kb)): -2.86 | Fold(YACEi/YAC) (H3K9me3 ChIP peak chrX_21482622_21482887, Agtr2, Promoter (1-2kb)): -3.76 | Fold(YACEi/YAC) (H3K9me3 ChIP peak chrX_51205773_51206072, Mbnl3, Promoter (<=1kb)): -4.38 | Fold(YACEi/YAC) (H3K9me3 ChIP peak chrX_52575414_52575585, A630012P03Rik, Promoter (<=1kb)): -2.24 | Fold(YACEi/YAC) (H3K9me3 ChIP peak chrX_53059727_53060393, C430049B03Rik, Promoter (2-3kb)): -2.78 | Fold(YACEi/YAC) (H3K9me3 ChIP peak chrX_55223440_55223928, Slxl1, Promoter (2-3kb)): -3.59 | Fold(YACEi/YAC) (H3K9me3 ChIP peak chrX_56214992_56215323, Gm773, Promoter (2-3kb)): -3.3 | Fold(YACEi/YAC) (H3K9me3 ChIP peak chrX_56345445_56345878, Zfp449, Promoter (<=1kb)): -3.19 | Fold(YACEi/YAC) (H3K9me3 ChIP peak chrX_56823574_56823879, Map7d3, Promoter (1-2kb)): -4.1 | Fold(YACEi/YAC) (H3K9me3 ChIP peak chrX_57211052_57211422, Cd40lg, Promoter (<=1kb)): -3.71 | Fold(YACEi/YAC) (H3K9me3 ChIP peak chrX_59587905_59588513, Fgf13, Promoter (2-3kb)): -4.9 | Fold(YACEi/YAC) (H3K9me3 ChIP peak chrX_62280858_62281466, 4933402E13Rik, Promoter (2-3kb)): -2.07 | Fold(YACEi/YAC) (H3K9me3 ChIP peak chrX_66814240_66814775, Mir470, Promoter (<=1kb)): -2.86 | Fold(YACEi/YAC) (H3K9me3 ChIP peak chrX_68010275_68010563, Mir509, Promoter (<=1kb)): -3.86 | Fold(YACEi/YAC) (H3K9me3 ChIP peak chrX_72985743_72986276, Zfp185, Promoter (1-2kb)): -2.91 | Fold(YACEi/YAC) (H3K9me3 ChIP peak chrX_74085947_74086310, Mecp2, Promoter (<=1kb)): -3.17 | Fold(YACEi/YAC) (H3K9me3 ChIP peak chrX_74254068_74254967, Emd, Promoter (<=1kb)): -2.9 | Fold(YACEi/YAC) (H3K9me3 ChIP peak chrX_100570155_100570557, Awat1, Promoter (1-2kb)): -2.24 | Fold(YACEi/YAC) (H3K9me3 ChIP peak chrX_100595739_100596091, P2ry4, Promoter (<=1kb)): -2.74 | Fold(YACEi/YAC) (H3K9me3 ChIP peak chrX_103413658_103414114, Tsx, Promoter (<=1kb)): -2.74 | Fold(YACEi/YAC) (H3K9me3 ChIP peak chrX_112599521_112600132, Zfp711, Promoter (<=1kb)): -3.8 | Fold(YACEi/YAC) (H3K9me3 ChIP peak chrX_113186036_113186428, Chm, Promoter (<=1kb)): -3.29 | Fold(YACEi/YAC) (H3K9me3 ChIP peak chrX_120315318_120315582, H2afb3, Promoter (2-3kb)): -3.46 | Fold(YACEi/YAC) (H3K9me3 ChIP peak chrX_120316028_120316808, H2afb3, Promoter (2-3kb)): -3.74 | Fold(YACEi/YAC) (H3K9me3 ChIP peak chrX_123101642_123102142, Cldn34c1, Promoter (1-2kb)): -3.6 | Fold(YACEi/YAC) (H3K9me3 ChIP peak chrX_134057860_134058275, Cstf2, Promoter (<=1kb)): -2.34 | Fold(YACEi/YAC) (H3K9me3 ChIP peak chrX_134162152_134162880, Xkrx, Promoter (<=1kb)): -2.18 | Fold(YACEi/YAC) (H3K9me3 ChIP peak chrX_134757222_134757422, Mir7093, Promoter (<=1kb)): -2.8 | Fold(YACEi/YAC) (H3K9me3 ChIP peak chrX_142294260_142294634, Gm5643, Promoter (2-3kb)): -2.73 | Fold(YACEi/YAC) (H3K9me3 ChIP peak chrX_142390366_142390928, Acsl4, Promoter (<=1kb)): -2.3 | Fold(YACEi/YAC) (H3K9me3 ChIP peak chrX_150550381_150550648, Mir3620, Promoter (2-3kb)): -2.24 | Fold(YACEi/YAC) (H3K9me3 ChIP peak chrX_152231158_152231359, Kdm5c, Promoter (1-2kb)): -3.16 | Fold(YACEi/YAC) (H3K9me3 ChIP peak chrX_152560343_152560717, Cldn34a, Promoter (2-3kb)): -4.14 | Fold(YACEi/YAC) (H3K9me3 ChIP peak chrX_152562252_152562894, Cldn34a, Promoter (<=1kb)): -2.56 | Fold(YACEi/YAC) (H3K9me3 ChIP peak chrX_153139912_153140739, Rragb, Promoter (<=1kb)): -2.81 | Fold(YACEi/YAC) (H3K9me3 ChIP peak chrX_158043367_158043944, Cnksr2, Promoter (<=1kb)): -2.16 | Fold(YACEi/YAC) (H3K9me3 ChIP peak chrX_159623974_159624438, Sh3kbp1, Promoter (2-3kb)): -3.85 | Fold(YACEi/YAC) (H3K9me3 ChIP peak chrX_159987543_159987820, Map3k15, Promoter (<=1kb)): -3.61 | Fold(YACEi/YAC) (H3K9me3 ChIP peak chrX_161115587_161115938, Scml2, Promoter (1-2kb)): -2.64 | Fold(YACEi/YAC) (H3K9me3 ChIP peak chrX_162760032_162760397, Rbbp7, Promoter (<=1kb)): -3.13 | Fold(YACEi/YAC) (H3K9me3 ChIP peak chrX_166236123_166236395, Gpm6b, Promoter (2-3kb)): -4.18 | Fold(YACEi/YAC) (H3K9me3 ChIP peak chrX_166439947_166441101, Ofd1, Promoter (<=1kb)): -2.41 | Fold(YACEi/YAC) (H3K9me3 ChIP peak chrX_166482184_166482633, Rab9, Promoter (2-3kb)): -2.11 | Fold(YACEi/YAC) (H3K9me3 ChIP peak chrX_167266371_167266766, Tlr8, Promoter (2-3kb)): -3.38 | Fold(YACEi/YAC) (H3K9me3 ChIP peak chrX_169321353_169321792, Hccs, Promoter (<=1kb)): -2.43 | Fold(YACEi/YAC) H3K9me3 ChIP occupancy (Hsf3, Promoter (<=1kb), chrX_96456335_96456839): -2.88 | Fold(YACEi/YAC) H3K9me3 ChIP occupancy (Mageb18, Promoter (1-2kb), chrX_92601496_92601857): -2.64 | Fold(YACEi/YAC) H3K9me3 ChIP occupancy (Prkx, Promoter (2-3kb), chrX_77798133_77798638): -2.48 | Fold(YACEi/YAC) H3K9me3 ChIP occupancy (Rbm3, Promoter (1-2kb), chrX_8147480_8147724): -2.71 | Fold(YACEi/YAC) H3K9me3 ChIP occupancy (Ssxb3, Promoter (2-3kb), chrX_8592171_8592736): -2.75 | Fold(YACEi/YAC) H3K9me3 ChIP occupancy (Suv39h1, Promoter (1-2kb), chrX_8076427_8076637): -2.8 | Fold(YACEi/YAC) H3K9me3 ChIP occupancy (Wdr45, Promoter (1-2kb), chrX_7720185_7720585): -3.17
